Results as given in patent publication US20040022870A1, “Immunogenic TLP composition” (priority 1996, published 2004).
Where a SMILES comes first, the peptide text is derived from it.

Experiments:
[1] = system: cytotoxic CD8 lymphocytes; assay: Stimulation of cytotoxic CD8 lymphocytes by synthetic polypeptide; format: cell-based, human; conditions: only in patients suffering from NSCLC neoplasia
[2] = system: TLP antigen on primary NSCLC culture cells; assay: Induction of TLP antigen expression on tumor cells by chemotherapy in vitro; format: cell-based, human; conditions: 10:g/ml for 48 hours; for TLP status of TLP-positive cell population after treatment: etoposide and cis-platinum
Excerpt: The cells were processed fresh and after preparation of primary cultures (complete RPMI 1640 culture medium with the addition of FCS 10%).
Along with variation in TLP, other possible phenotype modifications (IL-2 rec (interleukin receptors), HLA-Dr (human leukocyte antigen), CD16 (lymphocyte sub-populations), etc.) induced by treatment with single or combined agents (chemotherapy, cytokines) were also studied.
In the case of TLP, freshly isolated tumor cells were obtained from a surgical NSCLC patient. After plating for 24 h and separation of fibroblasts, cells were resuspended for immunohistochemistry and cytofluorimetric assay. Briefly, CSH 419 antiserum was labeled with PE conjugated anti-rabbit IgG and incubated with the cells.
The freeing of TLP in the culture supernatant was checked using the ELISA test.

Row | SMILES | stimulation of cytotoxic CD8 lymphocytes [1] | TLP status of TLP-negative cell population after treatment [2] | TLP status of TLP-positive cell population after treatment [2]
1 | CC[C@H](C)[C@H](NC(=O)[C@H](CO)NC(=O)[C@H](C)NC(=O)[C@H](CCC(=O)O)NC(=O)[C@H](CCCCN)NC(=O)[C@H](CC(N)=O)NC(=O)[C@@H](NC(=O)[C@@H](N)CCCNC(=N)N)[C@@H](C)O)C(=O)O [SEQ ID NO: 1, ArgThrAsnLysGluAlaSerIle] (H-RTNKEASI-OH; N-terminus and C-terminus assumed) | specific stimulation of the cytotoxic CD8 lymphocytes | – | –
2 | N.N.[Cl][Pt][Cl] [cis-platinum] | – | became TLP-positive | remained TLP positive
3 | COc1cc([C@@H]2c3cc4c(cc3[C@@H](O[C@@H]3O[C@@H]5CO[C@@H](C)O[C@H]5[C@H](O)[C@H]3O)[C@H]3COC(=O)[C@H]23)OCO4)cc(OC)c1O [etoposide] | – | became TLP-positive | remained TLP positive
